PMC5218480 (PLoS ONE, 2017)

Test system: MV-4-11 cells
Test: Gene expression microarray analysis (Affymetrix PrimeView) and GSEA
Assay type: cell-based, human
Design: RFU PODN (11730768_x_at) / Fold change /veh PODN (11730768_x_at) / RFU LINC00158 (11744669_a_at) / Fold change /veh LINC00158 (11744669_a_at) / RFU DUSP10 (11751237_a_at) / Fold change /veh DUSP10 (11751237_a_at) / RFU ID3 (11757404_x_at) / Fold change /veh ID3 (11757404_x_at) / RFU PLEKHG5 (11737974_s_at) / Fold change /veh PLEKHG5 (11737974_s_at) / RFU LRRC4B (11730491_at) / Fold change /veh LRRC4B (11730491_at) / RFU GIMAP4 (11747438_a_at) / Fold change /veh GIMAP4 (11747438_a_at) / RFU KRT8 (11758183_x_at) / Fold change /veh KRT8 (11758183_x_at) / RFU CNN1 (11734310_a_at) / Fold change /veh CNN1 (11734310_a_at) / RFU VPS37D (11726825_at) / Fold change /veh VPS37D (11726825_at) / RFU C10orf10 (11716522_x_at) / Fold change /veh C10orf10 (11716522_x_at) / RFU KIR2DL2 /// KIR2DL4 /// KIR2DL5A /// KIR2DL5B /// KIR2DS1 /// KIR2DS2 /// KIR2DS3 /// KIR2DS4 /// KIR3DL3 /// KIR3DL3 /// KIR3DS1 (11738374_at) / Fold change /veh KIR2DL2 /// KIR2DL4 /// KIR2DL5A /// KIR2DL5B /// KIR2DS1 /// KIR2DS2 /// KIR2DS3 /// KIR2DS4 /// KIR3DL3 /// KIR3DL3 /// KIR3DS1 (11738374_at) / RFU C1QL1 (11718748_at) / Fold change /veh C1QL1 (11718748_at) / RFU TMPRSS4 (11747572_a_at) / Fold change /veh TMPRSS4 (11747572_a_at) / RFU HAMP (11756126_x_at) / Fold change /veh HAMP (11756126_x_at) / RFU RNFT2 (11725882_a_at) / Fold change /veh RNFT2 (11725882_a_at) / RFU NR4A2 (11747474_a_at) / Fold change /veh NR4A2 (11747474_a_at) / RFU ABCC12 (11746883_a_at) / Fold change /veh ABCC12 (11746883_a_at) / RFU TMEM136 (11760407_x_at) / Fold change /veh TMEM136 (11760407_x_at) / RFU CLDN22 /// WWC2 (11732394_at) / Fold change /veh CLDN22 /// WWC2 (11732394_at) / RFU HLA-DPB1 (11760878_x_at) / Fold change /veh HLA-DPB1 (11760878_x_at) / RFU SPINT1 (11716480_a_at) / Fold change /veh SPINT1 (11716480_a_at) / RFU GAP43 (11754022_s_at) / Fold change /veh GAP43 (11754022_s_at) / RFU A4GNT (11735810_at) / Fold change /veh A4GNT (11735810_at) / RFU PRB3 (11715151_x_at) / Fold change /veh PRB3 (11715151_x_at) / RFU TUBB4B (11761932_at) / Fold change /veh TUBB4B (11761932_at) / RFU CAPN14 (11732068_a_at) / Fold change /veh CAPN14 (11732068_a_at) / RFU TMCC2 (11721928_a_at) / Fold change /veh TMCC2 (11721928_a_at) / RFU IRGQ (11745062_a_at) / Fold change /veh IRGQ (11745062_a_at) / RFU FAM174B (11720279_a_at) / Fold change /veh FAM174B (11720279_a_at) / RFU TMPRSS4 (11748680_a_at) / Fold change /veh TMPRSS4 (11748680_a_at) / RFU FAM212B (11763350_a_at) / Fold change /veh FAM212B (11763350_a_at) / RFU PLEKHG5 (11743358_a_at) / Fold change /veh PLEKHG5 (11743358_a_at) / RFU ZSCAN30 (11745921_a_at) / Fold change /veh ZSCAN30 (11745921_a_at) / RFU CMKLR1 (11741424_a_at) / Fold change /veh CMKLR1 (11741424_a_at) / RFU LOC101060620 /// MAPK8IP1 (11723275_at) / Fold change /veh LOC101060620 /// MAPK8IP1 (11723275_at) / RFU SPTSSB (11747773_x_at) / Fold change /veh SPTSSB (11747773_x_at) / RFU PRSS12 (11739890_at) / Fold change /veh PRSS12 (11739890_at) / RFU BIN1 (11741810_x_at) / Fold change /veh BIN1 (11741810_x_at) / RFU WNT11 (11732464_a_at) / Fold change /veh WNT11 (11732464_a_at) / RFU C10orf10 (11716521_a_at) / Fold change /veh C10orf10 (11716521_a_at) / RFU C5orf56 (11738089_at) / Fold change /veh C5orf56 (11738089_at) / RFU CYB561 (11721691_x_at) / Fold change /veh CYB561 (11721691_x_at) / RFU ANKRD19P (11752326_a_at) / Fold change /veh ANKRD19P (11752326_a_at) / RFU OR2T12 /// OR2T33 /// OR2T8 (11738714_s_at) / Fold change /veh OR2T12 /// OR2T33 /// OR2T8 (11738714_s_at) / RFU VCAN (11748164_a_at) / Fold change /veh VCAN (11748164_a_at) / RFU JSRP1 (11732532_at) / Fold change /veh JSRP1 (11732532_at) / RFU KRTAP10-11 (11738290_x_at) / Fold change /veh KRTAP10-11 (11738290_x_at) / RFU MYO3A (11730013_a_at) / Fold change /veh MYO3A (11730013_a_at) / RFU EBF3 (11725865_a_at) / Fold change /veh EBF3 (11725865_a_at) / RFU CAMK2N1 (11719241_x_at) / Fold change /veh CAMK2N1 (11719241_x_at) / RFU C5orf56 (11738088_a_at) / Fold change /veh C5orf56 (11738088_a_at) / RFU OLFML3 (11715873_a_at) / Fold change /veh OLFML3 (11715873_a_at) / RFU LOC100653217 /// NTM (11731650_a_at) / Fold change /veh LOC100653217 /// NTM (11731650_a_at) / RFU MAPK11 (11762145_a_at) / Fold change /veh MAPK11 (11762145_a_at) / RFU FIZ1 (11724087_x_at) / Fold change /veh FIZ1 (11724087_x_at) / RFU OASL (11726364_x_at) / Fold change /veh OASL (11726364_x_at) / RFU SOX15 (11748057_x_at) / Fold change /veh SOX15 (11748057_x_at) / RFU CD79A (11719716_a_at) / Fold change /veh CD79A (11719716_a_at) / RFU HIST1H1D (11736915_at) / Fold change /veh HIST1H1D (11736915_at) / RFU CASKIN2 (11723855_a_at) / Fold change /veh CASKIN2 (11723855_a_at) / RFU LOC730098 (11760151_x_at) / Fold change /veh LOC730098 (11760151_x_at) / RFU OR4N2 (11742367_at) / Fold change /veh OR4N2 (11742367_at) / RFU PRRT2 (11749266_a_at) / Fold change /veh PRRT2 (11749266_a_at) / RFU SNX32 (11753110_a_at) / Fold change /veh SNX32 (11753110_a_at) / RFU CDHR5 (11726645_a_at) / Fold change /veh CDHR5 (11726645_a_at) / RFU RCAN1 (11760418_a_at) / Fold change /veh RCAN1 (11760418_a_at) / RFU FAM167A (11723789_a_at) / Fold change /veh FAM167A (11723789_a_at) / RFU FAM26E (11764081_at) / Fold change /veh FAM26E (11764081_at) / RFU ISYNA1 (11749810_s_at) / Fold change /veh ISYNA1 (11749810_s_at) / RFU ACY1 (11761880_at) / Fold change /veh ACY1 (11761880_at) / RFU 11764098_at / Fold change /veh 11764098_at / RFU SAMD14 (11745864_x_at) / Fold change /veh SAMD14 (11745864_x_at) / RFU NPB (11741838_a_at) / Fold change /veh NPB (11741838_a_at) / RFU TMPRSS6 (11731388_a_at) / Fold change /veh TMPRSS6 (11731388_a_at) / RFU KRTAP10-2 (11738614_at) / Fold change /veh KRTAP10-2 (11738614_at) / RFU ARHGAP8 /// PRR5-ARHGAP8 (11727945_x_at) / Fold change /veh ARHGAP8 /// PRR5-ARHGAP8 (11727945_x_at) / RFU KRTAP5-7 /// NADSYN1 (11734609_at) / Fold change /veh KRTAP5-7 /// NADSYN1 (11734609_at) / RFU RASL12 (11751679_a_at) / Fold change /veh RASL12 (11751679_a_at) / RFU CDKN2B (11736163_a_at) / Fold change /veh CDKN2B (11736163_a_at) / RFU PRF1 (11729649_at) / Fold change /veh PRF1 (11729649_at) / RFU, ZNF638 /// ZNF638-IT1 / Fold change vs veh, ZNF638 /// ZNF638-IT1 / RFU, PANK3 / Fold change vs veh, PANK3 / RFU, SH3YL1 / Fold change vs veh, SH3YL1 / RFU, ZEB2 / Fold change vs veh, ZEB2 / RFU, NRIP1 / Fold change vs veh, NRIP1 / RFU, PTTG1IP / Fold change vs veh, PTTG1IP / RFU, CAPN2 / Fold change vs veh, CAPN2 / RFU, MED14 / Fold change vs veh, MED14 / RFU, SNORA58 / Fold change vs veh, SNORA58 / RFU, C1orf63 / Fold change vs veh, C1orf63 / RFU, LRRFIP1 / Fold change vs veh, LRRFIP1 / RFU, NDUFAF7 / Fold change vs veh, NDUFAF7 / RFU, SLC12A2 / Fold change vs veh, SLC12A2 / RFU, IBTK / Fold change vs veh, IBTK / RFU, ESF1 / Fold change vs veh, ESF1 / Fold change vs veh, TMEM50B / RFU, TAOK1 / Fold change vs veh, TAOK1 / RFU, ACBD3 / Fold change vs veh, ACBD3 / RFU, TMA16 / Fold change vs veh, TMA16 / RFU, RWDD3 / Fold change vs veh, RWDD3 / RFU, BCAT1 / Fold change vs veh, BCAT1 / RFU, EDEM3 / Fold change vs veh, EDEM3 / RFU, TMEM33 / Fold change vs veh, TMEM33 / RFU, WDR75 / Fold change vs veh, WDR75 / RFU, AHCTF1 / Fold change vs veh, AHCTF1 / RFU, TFRC / Fold change vs veh, TFRC / RFU, ZDHHC17 / Fold change vs veh, ZDHHC17 / RFU, NOM1 / Fold change vs veh, NOM1 / RFU, ARL8B / Fold change vs veh, ARL8B / RFU, ZBTB11 / Fold change vs veh, ZBTB11 / RFU, TAMM41 / Fold change vs veh, TAMM41 / RFU, KIAA1704 /// LOC100996395 / Fold change vs veh, KIAA1704 /// LOC100996395 / RFU, ING1 / Fold change vs veh, ING1 / RFU, TRMT61B / Fold change vs veh, TRMT61B / RFU, FUBP3 / Fold change vs veh, FUBP3 / RFU, TP53 / Fold change vs veh, TP53 / RFU, TNKS2 / Fold change vs veh, TNKS2 / RFU, ZFP14 / Fold change vs veh, ZFP14 / RFU, ACTR2 / Fold change vs veh, ACTR2 / RFU, PPP3R1 / Fold change vs veh, PPP3R1 / RFU, PIK3R1 / Fold change vs veh, PIK3R1 / RFU, HNRNPA1 / Fold change vs veh, HNRNPA1 / RFU, RNF170 / Fold change vs veh, RNF170 / RFU, ZNF28 / Fold change vs veh, ZNF28 / RFU, RNGTT / Fold change vs veh, RNGTT / RFU, OGT / Fold change vs veh, OGT / RFU, BRD1 / Fold change vs veh, BRD1 / RFU, MARS / Fold change vs veh, MARS / RFU, ZNF655 / Fold change vs veh, ZNF655 / RFU, FAHD1 / Fold change vs veh, FAHD1 / RFU, BDP1 / Fold change vs veh, BDP1 / RFU, LRRCC1 / Fold change vs veh, LRRCC1 / RFU, ARID1A / Fold change vs veh, ARID1A / RFU, ZNF146 / Fold change vs veh, ZNF146 / RFU, ZNF330 / Fold change vs veh, ZNF330 / RFU, GPN3 / Fold change vs veh, GPN3 / RFU, C9orf123 / Fold change vs veh, C9orf123 / RFU, N4BP2L2 / Fold change vs veh, N4BP2L2 / RFU, ARFIP1 / Fold change vs veh, ARFIP1 / RFU, FAM179B / Fold change vs veh, FAM179B / RFU, BCL10 / Fold change vs veh, BCL10 / RFU, UHRF1BP1L / Fold change vs veh, UHRF1BP1L / RFU, BET1 / Fold change vs veh, BET1 / RFU, CNOT2 / Fold change vs veh, CNOT2 / RFU, ZNF268 / Fold change vs veh, ZNF268 / Fold change vs veh, ZNF507 / RFU, DGCR2 / Fold change vs veh, DGCR2 / RFU, WDSUB1 / Fold change vs veh, WDSUB1 / Fold change vs veh, HSP90B1 /// MIR3652 / RFU, ADSS / Fold change vs veh, ADSS / RFU, GK / Fold change vs veh, GK / RFU, ZNF148 / Fold change vs veh, ZNF148 / RFU, TAF9 / Fold change vs veh, TAF9 / RFU, SLC1A5 / Fold change vs veh, SLC1A5 / RFU, SLMO2 / Fold change vs veh, SLMO2 / RFU, ABCC4 / Fold change vs veh, ABCC4 / RFU, LOC101060439 /// RAP1B / Fold change vs veh, LOC101060439 /// RAP1B / RFU, RFX7 / Fold change vs veh, RFX7 / RFU, GTPBP10 / Fold change vs veh, GTPBP10 / RFU, CNEP1R1 / Fold change vs veh, CNEP1R1 / RFU, BIVM-ERCC5 /// ERCC5 / Fold change vs veh, BIVM-ERCC5 /// ERCC5 / RFU, ILF3 / Fold change vs veh, ILF3 / RFU 11762660_at / Fold change /veh 11762660_at / RFU VCAN (11757783_s_at) / Fold change /veh VCAN (11757783_s_at) / RFU DDX43 (11728927_at) / Fold change /veh DDX43 (11728927_at) / RFU KRT8 (11758188_x_at) / Fold change /veh KRT8 (11758188_x_at) / RFU NKD1 (11759106_at) / Fold change /veh NKD1 (11759106_at) / RFU SRD5A1 (11742802_a_at) / Fold change /veh SRD5A1 (11742802_a_at) / RFU TPSAB1 /// TPSB2 (11721975_s_at) / Fold change /veh TPSAB1 /// TPSB2 (11721975_s_at) / RFU GSTM3 (11746129_a_at) / Fold change /veh GSTM3 (11746129_a_at) / RFU IL23R (11737362_x_at) / Fold change /veh IL23R (11737362_x_at) / RFU TMEM51 (11727254_a_at) / Fold change /veh TMEM51 (11727254_a_at) / RFU PIWIL2 (11732686_x_at) / Fold change /veh PIWIL2 (11732686_x_at) / RFU ORM1 (11744905_x_at) / Fold change /veh ORM1 (11744905_x_at) / RFU CCDC152 (11743942_at) / Fold change /veh CCDC152 (11743942_at) / RFU ECM1 (11717891_a_at) / Fold change /veh ECM1 (11717891_a_at) / RFU IL23R (11748794_a_at) / Fold change /veh IL23R (11748794_a_at) / RFU TNFAIP8L3 (11732012_x_at) / Fold change /veh TNFAIP8L3 (11732012_x_at) / RFU MBOAT4 (11741988_at) / Fold change /veh MBOAT4 (11741988_at) / RFU 11764193_at / Fold change /veh 11764193_at / RFU TMEM53 (11763286_at) / Fold change /veh TMEM53 (11763286_at) / RFU MAGEB2 (11727129_at) / Fold change /veh MAGEB2 (11727129_at) / RFU TMEM200A (11744735_a_at) / Fold change /veh TMEM200A (11744735_a_at) / RFU CCDC152 (11751479_a_at) / Fold change /veh CCDC152 (11751479_a_at) / RFU FAM211A (11726209_a_at) / Fold change /veh FAM211A (11726209_a_at) / RFU RGS16 (11746705_a_at) / Fold change /veh RGS16 (11746705_a_at) / RFU VCAN (11755009_s_at) / Fold change /veh VCAN (11755009_s_at) / RFU RHOB (11743442_s_at) / Fold change /veh RHOB (11743442_s_at) / RFU RGS16 (11720943_a_at) / Fold change /veh RGS16 (11720943_a_at) / RFU RGS16 (11720944_at) / Fold change /veh RGS16 (11720944_at) / RFU, VPS4B / Fold change vs veh, VPS4B / RFU, CREB1 / Fold change vs veh, CREB1 / RFU, DNAJC13 / Fold change vs veh, DNAJC13 / RFU, GNAQ / Fold change vs veh, GNAQ / RFU, CDK5R1 / Fold change vs veh, CDK5R1 / RFU, ZRANB3 / Fold change vs veh, ZRANB3 / RFU, CUL4A / Fold change vs veh, CUL4A / RFU, CCNY / Fold change vs veh, CCNY / RFU, UFL1 / Fold change vs veh, UFL1 / RFU, COG3 / Fold change vs veh, COG3 / RFU, DIAPH2 / Fold change vs veh, DIAPH2 / RFU, SKA2 / Fold change vs veh, SKA2 / RFU, AFF3 / Fold change vs veh, AFF3 / RFU, LMF1 / Fold change vs veh, LMF1 / RFU, IPO11 / Fold change vs veh, IPO11 / RFU, DFFB / Fold change vs veh, DFFB / RFU, FOXP1 / Fold change vs veh, FOXP1 / RFU, CARD8 / Fold change vs veh, CARD8 / RFU, STRN3 / Fold change vs veh, STRN3 / RFU, ADK / Fold change vs veh, ADK / RFU, RASSF2 / Fold change vs veh, RASSF2 / RFU, WIPF1 / Fold change vs veh, WIPF1 / RFU, LARP1B / Fold change vs veh, LARP1B / RFU, RASA1 / Fold change vs veh, RASA1 / RFU, RB1 / Fold change vs veh, RB1 / RFU, PPFIA1 / Fold change vs veh, PPFIA1 / RFU, MAT2A / Fold change vs veh, MAT2A / RFU, CCT5 / Fold change vs veh, CCT5 / RFU, WDR92 / Fold change vs veh, WDR92 / RFU, CUX1 / Fold change vs veh, CUX1 / RFU, TTC7A / Fold change vs veh, TTC7A / RFU, TMEM135 / Fold change vs veh, TMEM135 / RFU, DEPTOR / Fold change vs veh, DEPTOR / RFU, CPM / Fold change vs veh, CPM / RFU, DNAJB6 / Fold change vs veh, DNAJB6 / RFU, CACNA2D3 / Fold change vs veh, CACNA2D3 / RFU, DTX4 / Fold change vs veh, DTX4 / RFU, TFCP2 / Fold change vs veh, TFCP2 / RFU, GMCL1 /// GMCL1P1 / Fold change vs veh, GMCL1 /// GMCL1P1 / RFU, AEBP2 / Fold change vs veh, AEBP2 / RFU, SNHG1 /// SNORD22 /// SNORD25 /// SNORD26 /// SNORD27 /// SNORD28 /// SNORD29 /// SNORD31 / Fold change vs veh, SNHG1 /// SNORD22 /// SNORD25 /// SNORD26 /// SNORD27 /// SNORD28 /// SNORD29 /// SNORD31 / Fold change (Aza/veh), C12orf56 (ProbeSet 11735607_a_at) / Fold change (ACY-1035/veh), C12orf56 (ProbeSet 11735607_a_at) / Fold change (Aza/veh), FGFR1OP (ProbeSet 11751329_s_at) / Fold change (ACY-1035/veh), FGFR1OP (ProbeSet 11751329_s_at) / Fold change (Aza/veh), VPS36 (ProbeSet 11739960_a_at) / Fold change (ACY-1035/veh), VPS36 (ProbeSet 11739960_a_at) / RFU SYPL1 (11715823_x_at) / Fold change /veh SYPL1 (11715823_x_at) / RFU IGFBP7 (11715501_s_at) / Fold change /veh IGFBP7 (11715501_s_at) / RFU REEP3 (11722064_at) / Fold change /veh REEP3 (11722064_at) / RFU IGLL1 (11728026_x_at) / Fold change /veh IGLL1 (11728026_x_at): dose or concentration left out as unconfirmed
Conditions: ProbeSet 11764057_s_at; LIST B

## Nc1ncn([C@@H]2O[C@H](CO)[C@@H](O)[C@H]2O)c(=O)n1 [azacitidine]
  RFU, C1orf63: 124.54 RFU
